Laboratory results as given in PubChem BioAssay (NCI).
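Growth conditions: 96-well plates. Treatment: test compound, 48 hours, 5 concentrations. Analysis: linear interpolation between bracketing concentrations; unreached endpoints set to highest concentration. TGI: total growth inhibition.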

Assays:
Assay in all cases: inhibition of tumour cell growth, NCI panel, 48 h
[1] = tested on: M14 melanoma
[2] = tested on: ACHN renal
[3] = tested on: COLO 205 colon
[4] = tested on: SW-620 colon
[5] = tested on: OVCAR-4 ovarian
[6] = tested on: HT29 colon
[7] = tested on: HCT-15 colon
[8] = tested on: LOX IMVI melanoma
[9] = tested on: UACC-257 melanoma
[10] = tested on: OVCAR-3 ovarian
[11] = tested on: 786-0 renal
[12] = tested on: K-562 leukemia
[13] = tested on: OVCAR-5 ovarian
[14] = tested on: TK-10 renal
[15] = tested on: KM12 colon
[16] = tested on: OVCAR-8 ovarian
[17] = tested on: SNB-19 CNS
[18] = tested on: HCC-2998 colon
[19] = tested on: SK-OV-3 ovarian
[20] = tested on: T-47D breast
[21] = tested on: HL-60(TB) leukemia
[22] = tested on: MCF7 breast
[23] = tested on: CAKI-1 renal
[24] = tested on: UACC-62 melanoma
[25] = tested on: HOP-62 NSCLC
[26] = tested on: RPMI-8226 leukemia
[27] = tested on: DU-145 prostate
[28] = tested on: SK-MEL-28 melanoma
[29] = tested on: MDA-N
[30] = tested on: SK-MEL-2 melanoma
[31] = tested on: HOP-92 NSCLC
[32] = tested on: SK-MEL-5 melanoma
[33] = tested on: SN12C renal
[34] = tested on: NCI-H460 lung
[35] = tested on: SF-268 CNS
[36] = tested on: BT-549 breast
[37] = tested on: SNB-75 CNS
[38] = tested on: U251 CNS
[39] = tested on: MOLT-4 leukemia
[40] = tested on: SF-539 CNS
[41] = tested on: NCI-H226 lung
[42] = tested on: HCT-116 colon
[43] = tested on: A549 NSCLC
[44] = tested on: NCI/ADR-RES ovarian
[45] = tested on: SF-295 CNS
[46] = tested on: PC-3 prostate
[47] = tested on: HS 578T breast
[48] = tested on: NCI-H522 lung
[49] = tested on: EKVX NSCLC
[50] = tested on: IGROV1 ovarian
[51] = tested on: SR leukemia
[52] = tested on: MDA-MB-231 breast
[53] = tested on: MDA-MB-435
[54] = tested on: UO-31 renal
[55] = tested on: A498 renal
[56] = tested on: RXF 393 renal
[57] = tested on: MALME-3M melanoma
[58] = tested on: NCI-H23 lung
[59] = tested on: CCRF-CEM leukemia

## CC12O[C@]3([C@H](C(=O)N4CCOC43C)[C@H]1Cl)[C@H]1O[C@H]12 (stereo partly drawn)
[1]
  TGI: > 100 µM
[2]
  TGI: > 100 µM
[3]
  TGI: 91.9 µM
[4]
  TGI: > 100 µM
[5]
  TGI: > 100 µM
[6]
  TGI: > 100 µM
[7]
  TGI: > 100 µM
[8]
  TGI: > 100 µM
[9]
  TGI: > 100 µM
[10]
  TGI: > 100 µM
[11]
  TGI: > 100 µM
[12]
  TGI: > 100 µM
[13]
  TGI: > 100 µM
[14]
  TGI: > 100 µM
[15]
  TGI: > 100 µM
[16]
  TGI: > 100 µM
[17]
  TGI: > 100 µM
[18]
  TGI: > 100 µM
[19]
  TGI: > 100 µM
[20]
  TGI: > 100 µM
[21]
  TGI: > 100 µM
[22]
  TGI: > 100 µM
[23]
  TGI: > 100 µM
[24]
  TGI: > 100 µM
[25]
  TGI: > 100 µM
[26]
  TGI: > 100 µM
[27]
  TGI: > 100 µM
[28]
  TGI: > 100 µM
[29]
  TGI: > 100 µM
[30]
  TGI: > 100 µM
[31]
  TGI: > 100 µM
[32]
  TGI: > 100 µM
[33]
  TGI: > 100 µM
[34]
  TGI: > 100 µM
[35]
  TGI: > 100 µM
[36]
  TGI: > 100 µM
[37]
  TGI: > 100 µM
[38]
  TGI: > 100 µM
[39]
  TGI: > 100 µM
[40]
  TGI: > 100 µM
[41]
  TGI: > 100 µM
[42]
  TGI: > 100 µM
[43]
  TGI: > 100 µM
[44]
  TGI: > 100 µM
[45]
  TGI: > 100 µM
[46]
  TGI: > 100 µM
[47]
  TGI: > 100 µM
[48]
  TGI: > 100 µM
[49]
  TGI: > 100 µM
[50]
  TGI: > 100 µM
[51]
  TGI: > 100 µM
[52]
  TGI: > 100 µM
[53]
  TGI: > 100 µM
[54]
  TGI: > 100 µM
[55]
  TGI: > 100 µM

## COC(=O)C1CC23CCCN4CCC5(c6ccccc6N(C=O)C15CC2)C43 (stereo not drawn)
[1]
  TGI: > 100 µM
[2]
  TGI: > 100 µM
[3]
  TGI: > 100 µM
[4]
  TGI: > 100 µM
[5]
  TGI: > 100 µM
[6]
  TGI: > 100 µM
[7]
  TGI: > 100 µM
[8]
  TGI: > 100 µM
[9]
  TGI: > 100 µM
[10]
  TGI: > 100 µM
[56]
  TGI: > 100 µM
[11]
  TGI: > 100 µM
[57]
  TGI: > 100 µM
[13]
  TGI: > 100 µM
[14]
  TGI: > 100 µM
[15]
  TGI: > 100 µM
[16]
  TGI: > 100 µM
[17]
  TGI: > 100 µM
[18]
  TGI: > 100 µM
[19]
  TGI: > 100 µM
[20]
  TGI: > 100 µM
[21]
  TGI: > 100 µM
[22]
  TGI: > 100 µM
[23]
  TGI: > 100 µM
[24]
  TGI: > 100 µM
[25]
  TGI: > 100 µM
[58]
  TGI: > 100 µM
[26]
  TGI: > 100 µM
[27]
  TGI: > 100 µM
[28]
  TGI: > 100 µM
[29]
  TGI: > 100 µM
[30]
  TGI: > 100 µM
[31]
  TGI: > 100 µM
[32]
  TGI: > 100 µM
[33]
  TGI: > 100 µM
[34]
  TGI: > 100 µM
[35]
  TGI: > 100 µM
[36]
  TGI: > 100 µM
[37]
  TGI: > 100 µM
[38]
  TGI: > 100 µM
[39]
  TGI: > 100 µM
[40]
  TGI: > 100 µM
[41]
  TGI: > 100 µM
[42]
  TGI: > 100 µM
[43]
  TGI: > 100 µM
[44]
  TGI: > 100 µM
[45]
  TGI: > 100 µM
[46]
  TGI: > 100 µM
[47]
  TGI: > 100 µM
[48]
  TGI: > 100 µM
[49]
  TGI: > 100 µM
[50]
  TGI: > 100 µM
[51]
  TGI: > 100 µM
[52]
  TGI: > 100 µM
[53]
  TGI: > 100 µM
[59]
  TGI: > 100 µM
[54]
  TGI: > 100 µM
[55]
  TGI: > 100 µM
